Results reported in patent US12611459B2, “System and method for unbinding of plasma protein-bound active agents using an ultrasound system” (The Brigham and Women's Hospital, Inc., priority 2019, dated 2026).

Assays:
[1] = biological target: bovine serum albumin (BSA) (Bos taurus, UniProt P02769); assay: equilibrium dialysis of albumin-phenytoin solution under focused ultrasound (FUS), HPLC of dialysate; format: in vitro ADME; conditions: for phenytoin level in dialysate: FUS 250 kHz, 55 ms TBD, 4 Hz PRF, 5 W/cm2 Isppa, 55 min; for elevation of unbound phenytoin level at the focus: p<0.05
Description: The ability of FUS to unbind phenytoin from albumin was assessed in this example by an equilibrium dialysis (ED), whereby the cocktail of albumin-phenytoin was sonicated, and unbound phenytoin was allowed to pass through the membrane to be collected and analyzed. As a part of in vitro testing, a visible dye, Toluidine Blue O, was dissolved in an aqueous solution of albumin and the spatial distribution of the degree of its unbinding from the albumin through the application of FUS was qualitatively evaluated via gel infiltration using agar gel block.
In this example, an in vitro experimental chamber was constructed using a 3D printer (clear resin) to measure the effects of FUS on albumin-phenytoin binding. The chamber includes four slots to place four microdialysis cassettes (7 kMW cut-off pore size; 4×4×0.8 cm; H×L×W) whereby one is placed perpendicular to the sonication focus (‘FF’), and three others are placed away from the focus (‘F01’ through ‘F03’). A FUS transducer having 13 mm focal length (away from the exit plane) and operating at a fundamental frequency of 250 kHz was used to sonicate the middle of the dialysis window (‘FF’). The output pressure wave from the transducer was calibrated for the input signal generator and the acoustic map perpendicular to the sonication axis was mapped using known methods. An identical setup was prepared separately and was not sonicated to provide a control.
In this example, bovine serum albumin (BSA) was dissolved in a phosphate-buffered saline (PBS) (pH7.4) at a concentration of 46 mg/mL concentration, and 200 mL of resulting solution was poured into the chamber. The experiment was conducted at a room temperature (20-21° C.) and the solution temperature was equilibrated at the ambient temperature. The solution was not degassed and kept the ambient gas content (O2 6.1 ppm; measured using dissolved oxygen meter). The wall of the chamber was padded with rubber inserts to absorb the incident acoustic waves to prevent reflection or reverberation within the chamber.
In this example, phenytoin was dissolved (15 μg/mL) in PBS having bovine serum albumin (BSA) concentration of 45 mg/mL to emulate the clinical serum concentration. The temperature of the solution was monitored during the sonication to examine the potential effect from the temperature of the solution on the bound phenytoin. The dialysis cassettes, after hydration according to known methods, were filled with PBS (0.5 ML) and were placed into the bath. Subsequently, sonication was given for 55 min at 250 kHz in pulsed manner (55 ms TBD, 4 Hz PRF, at 5 W/cm2 Isppa Spatial-Peak Pulse-Average Intensity, i.e. 22% duty cycle). The mechanical index (MI) of the focus was 0.8 (corresponding to peak negative pressure of 391 kPa). The temperature of the solution was monitored. […] The obtained samples underwent High Performance Liquid Chromatography (HPLC) for the measurement of phenytoin concentration after the calibration of the known absolute level of the phenytoin. The HPLC system consisted of an autosampler, a dual piston pump, and an electrochemical detector coupled to a guard cell and an analytical cell.

[2] = tested on: plasma proteins, primarily albumin; conditions: cited from earlier work
[3] = rat, in vivo
Description: In this example the effects of focused ultrasound (FUS) on unbinding phenytoin from albumin was evaluated in an animal model (rat). The enhancement of phenytoin was assessed using immunohistochemistry (IHC) followed by intraperitoneal injection of phenytoin and subsequent sonication of the unilateral hemisphere. All IHC was performed on an automated staining platform. Hematoxylin and eosin (H&E) staining was also performed to assess for tissue hemorrhage. The same sonication parameters and device were used as in the first example described above except the sonication was delivered for 35 minutes.
FUS was delivered to the brain areas in the right hemisphere at a fundamental frequency of 250 kHz in a pulsed manner (55 ms TBD, 4 Hz PRF, at 5 W/cm^2 Isppa) for 35 minutes. FIG. 4 illustrates example mosaic H&E microscope images 402, example, mosaic phenytoin-stained IHC images 404 and example inverted grayscale images 406 of the phenytoin IHC in accordance with an embodiment. […] In the IHC images 404, the dotted ovals 408 indicate the approximate location of the FUS sonication focus (in the right hemisphere of the brain).

bovine serum albumin (BSA), sequence (P02769 25-607): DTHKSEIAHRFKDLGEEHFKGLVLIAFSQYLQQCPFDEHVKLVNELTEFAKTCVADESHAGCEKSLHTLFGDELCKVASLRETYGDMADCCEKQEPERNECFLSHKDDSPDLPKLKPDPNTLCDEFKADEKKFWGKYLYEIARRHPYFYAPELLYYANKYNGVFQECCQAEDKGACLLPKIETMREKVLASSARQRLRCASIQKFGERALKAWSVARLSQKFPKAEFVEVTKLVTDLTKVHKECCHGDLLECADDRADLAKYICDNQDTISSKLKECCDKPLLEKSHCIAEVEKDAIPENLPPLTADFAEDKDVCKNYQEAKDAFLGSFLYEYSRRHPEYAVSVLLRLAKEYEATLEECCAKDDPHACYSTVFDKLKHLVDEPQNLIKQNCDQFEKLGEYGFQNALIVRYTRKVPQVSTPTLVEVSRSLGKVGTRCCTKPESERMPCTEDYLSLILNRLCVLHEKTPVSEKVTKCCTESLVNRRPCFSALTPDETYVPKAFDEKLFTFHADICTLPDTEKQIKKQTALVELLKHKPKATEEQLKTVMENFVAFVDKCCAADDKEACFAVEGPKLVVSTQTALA

Q: With O=C1NC(=O)C(c2ccccc2)(c2ccccc2)N1 [phenytoin] as the compound, how does the “phenytoin level in dialysate” value ([1]; at the acoustic focus (FF), n=6) read?
A: The value was 1.38 ± 0.2 µg/mL.

Q: And the “elevation of unbound phenytoin level at the focus” value ([1]; compared to outside of focus)?
A: The value was about 21.4%.

Q: What about the “elevation of unbound phenytoin level at the focus” value ([1]; compared to the control) of the same compound?
A: The value was “approximately 27.7%”.

Q: And the “averaged phenytoin level in dialysate” value ([1]; control chamber (CTRL), not sonicated, n=12)?
A: Its value is 1.52 ± 0.16 µg/mL.

Q: What about the “phenytoin level in dialysate” value ([1]; outside of focus (FO), n=12) of the same compound?
A: The value was 1.13 ± 0.08 µg/mL.

Q: And the “difference in phenytoin level between control condition and outside of focus” value ([1]; p>0.1)?
A: Its value is “no significant difference”.

Q: And the “fraction available in an unbound state” value ([2]; at clinical dose)?
A: Its value is about 12%.

Q: What about the “binding level to plasma proteins” value ([2]; primarily to albumin) of the same compound?
A: The value was “approximately 90%”.

Q: What about the “tissue injury or hemorrhage (H&E)” value [3] of the same compound?
A: The value was “no evidence of tissue injury or hemorrhage”.
